In patent US20130090471A1, “METHOD FOR DETECTING COMPOUNDS THAT MODULATE THE CHOLESTEROL METABOLISM” (priority 2010, published 2013):
Positions of bridges follow the written chain, without caps; N, C: chain ends. Non-standard residues stand in square brackets, D forms with d. Residues, ends and D or L forms follow the SMILES beside them. *: point of attachment. Asp(3S-OH) = N[C@H](C(=O)O)[C@H](O)C(=O)O; Thr(4-Cl) = N[C@H](C(=O)O)[C@H](O)CCl; X1 = CCCCCCCCC[C@@H](O)CC(=O)*; dDab = NCC[C@@H](N)C(=O)O; Dab = NCC[C@H](N)C(=O)O; Dhb = C/C=C(\N)C(=O)O

How the values were obtained:
Assay type in all cases: cell-based, Saccharomyces cerevisae
[1] = system: yIM126-pIM580-CYP27A1 yeast; assay: Test for restoration of growth on a YPG agar containing syringomycin E inoculated with a cholesterol-producing strain; conditions: syringomycin E 250 ng/ml, 48 h to 72 h at 30° C.
Experimental: The yIM126 yeasts containing the expression plasmids for DHCR24 with or without P450 are cultured in YNB medium, 2% glucose, adenine at 100 μg/ml for 48 h at 30° C. and then in Käppeli medium for 24 h at 30° C. as described above.
(§1) The yeast suspensions are diluted to an optical density at 600 nm of 0.005 unit ( 1/200) in YNB medium in order to inoculate a YPG agar containing syringomycin E at a dose that is toxic for the strain, i.e. 160 ng/ml for yIM126 containing the pIM582 plasmid, or 250 ng/ml for the yIM126 strain containing the pIM580 plasmid.
The inoculation of the agar medium is carried out by flooding its surface and immediately suctioning off the excess liquid. Products of interest are deposited on the agar surface thus inoculated, and then dried. […] Similarly, this method makes it possible to identify activators of enzymes, such as cytochromes P450, for instance CYP27A1, which catabolize cholesterol.
FIG. 7: Test for restoration of growth on a YPG agar containing syringomycin E inoculated with a cholesterol-producing strain.
The surface of a YPG agar medium containing syringomycin E at 250 ng/ml is inoculated with a covering of yIM126-pIM580-CYP27A1 yeast suspension. […]

[2] = system: yIM126 strain containing the pIM580 plasmid (with CYP27A1); assay: Growth of yeasts on YPG agar containing syringomycin E
Experimental: (§2) This culture medium is a rich medium of YPG agar type (YPG complete medium: yeast extract (Difco) 10 g/L, bactopeptone (Difco) 20 g/L, glucose (Merck) 20 g/L) supplemented with syringomycin E toxin from Pseudomonas syringae B-301D (Sigma #S6946) from 150 to 250 ng/ml.
(§3) The yIM126 yeast strains containing an expression vector for DHCR24 and cytochrome P450 such as pIM580, described previously, are cultured for 48 h with shaking at 30° C. in a YNB medium (yeast nitrogen base w/o amino acids (Difco) 6.7 g/L, glucose (Merck) 20 g/L) supplemented with 2% glucose and adenine at 100 μg/ml.
(§4) The culture reaches an optical density at 600 nm of about 7 units. The cell pellet is harvested by centrifugation and transferred into an identical volume of Käppeli medium containing […], 2% glucose and 100 μg/ml of adenine, and shaken at 30° C. for 24 h, reaching an optical density at 600 nm of about 40 units.
(§5) The cultures are diluted to 1 unit of optical density at 600 nm and then to 1/50 and then 25-fold dilutions in order to perform a drop test on YPG agars containing syringomycin E according to the methods known to those skilled in the art.
(§6) The toxicity of this YPG medium containing syringomycin E depends on the amount of cholesterol available in the yeast, observed by GC/FID or GC/MS.
as §1
(§7) FIG. 6: Test for growth of various strains producing and/or catabolizing cholesterol on a YPG agar containing syringomycin E (SRG): Yeast culture dilutions deposited on a YPG agar without syringomycin E(6A) or with syringomycin E at 170 ng/ml (6B); Dilution OD at 600 nm from top to bottom: 0.02/0.0008/[…].

[3] = system: yIM126 containing the pIM582 plasmid (without P450); assay: as above
Experimental: as §2, §3, §4, §5, §6, §1, §7

[4] = 2 μl of product at 1 mM deposited
[5] = 2 μl of product at 0.1 mg/ml deposited
[6] = YPG agar, inoculated at OD 600 nm 0.005
[7] = syringomycin E at 170 ng/ml, 48 h to 72 h at 30° C.

SMILES: Clc1ccccc1CNCC1CCC(CNCc2ccccc2Cl)CC1 (stereo not drawn) [AY9944]
- restoration of growth (yeast growth halos around the deposits) on medium which is initially toxic [1, 4]: verified

SMILES: CC(C)CCC[C@@H](C)[C@H]1CC[C@H]2[C@@H]3CC=C4C[C@@H](O)CC[C@]4(C)[C@H]3CC[C@]12C [cholesterol]
- area of protection with respect to the toxicity of the syringomycin E contained in the agar [1, 5]: induces an area of protection

SMILES: C/C=C1\NC(=O)[C@H](Cc2ccccc2)NC(=O)[C@H](CCCN=C(N)N)NC(=O)[C@@H](CCN)NC(=O)[C@H](CCN)NC(=O)[C@@H](CO)NC(=O)[C@@H](NC(=O)C[C@H](O)CCCCCCCCC)COC(=O)[C@H]([C@H](O)CCl)NC(=O)[C@H]([C@H](O)C(=O)O)NC1=O [syringomycin E] (X1-S[dS][Dab][dDab]RF[Dhb][Asp(3S-OH)][Thr(4-Cl)]; ester 1-C)
- dose that is toxic for the strain [2, 6]: 250 ng/mL
- growth of the yeasts in drop test [2, 7]: capable of growing
- dose that is toxic for the strain [3, 6]: 160 ng/mL
- growth of the yeasts in drop test [3, 7]: not capable of growing

SMILES: CCN(C/C=C\c1ccc(C2CCCCC2)c(Cl)c1)C1CCCCC1 [SR31747]
- restoration of growth (yeast growth halos around the deposits) on medium which is initially toxic [1, 4]: verified

SMILES: CCC(C)(C)c1ccc(CC(C)CN2C[C@@H](C)O[C@@H](C)C2)cc1 (stereo partly drawn) [amorolfine]
- restoration of growth (yeast growth halos around the deposits) on medium which is initially toxic [1, 5]: verified

SMILES: C[C@@H](CO)CCC[C@@H](C)[C@H]1CC[C@H]2[C@@H]3CC=C4C[C@@H](O)CC[C@]4(C)[C@H]3CC[C@]12C [27OH-cholesterol]
- area of protection with respect to the toxicity of the syringomycin E contained in the agar [1, 5]: induces an area of protection
